How the values were obtained:
TRPA1 (RAT) = target: T1, TRPA1 (RAT) (Rattus norvegicus, UniProt Q6RI86); assay: Calcium imaging of HEK293T cells (Rhod-3 AM), rat TRPA1; assay type: cell-based; conditions: HEK293T transfected with rat TRPA1 and GFP; 100 pM or 1 mM MGO
T1 construct: expressed in transfected cells; host or cells: HEK293T
Method: (§1) Appropriate HEK293T-derived cells were seeded on collagen-coated glass bottom culture dishes (MatTek Corporation). Cells were loaded with 10 pM of Rhod-3 AM (Life Technology) for 30 min at 37° C. After 30 min they were washed twice with standard Tyrode's solution (135 mM NaCl, 4 mM KCl, 10 mM glucose, 10 mM HEPES, 2 mM CaCl2, and 1 mM MgCl2 at pH=7.4) at room temperature. Calcium imaging was performed on an Olympus BX51WI Axiovert microscope under a 60× objective. Fluorescent images were documented upon sequential excitation with 555 nm followed by 484 nm with a Roper CoolSnap CCD camera. After establishing a baseline 555/484 ratio, methylglyoxal or other agonists were diluted with Tyrode's solution (100 pM or 1 mM final concentration) and were perfused into cells. Images were processed with the MetaFlour (Olympus) software.

TRPA1 (worm) = target: T2, TRPA1 (worm) (Caenorhabditis elegans, UniProt Q18297); assay: Calcium imaging of HEK293T cells (Rhod-3 AM), worm TRPA1; assay type: cell-based, C. elegans; conditions: HEK293T transfected with worm TRPA1 and GFP; 100 pM or 1 mM MGO
T2 construct: expressed in transfected cells; host or cells: HEK293T
T2 sequence (Q18297 1-1211): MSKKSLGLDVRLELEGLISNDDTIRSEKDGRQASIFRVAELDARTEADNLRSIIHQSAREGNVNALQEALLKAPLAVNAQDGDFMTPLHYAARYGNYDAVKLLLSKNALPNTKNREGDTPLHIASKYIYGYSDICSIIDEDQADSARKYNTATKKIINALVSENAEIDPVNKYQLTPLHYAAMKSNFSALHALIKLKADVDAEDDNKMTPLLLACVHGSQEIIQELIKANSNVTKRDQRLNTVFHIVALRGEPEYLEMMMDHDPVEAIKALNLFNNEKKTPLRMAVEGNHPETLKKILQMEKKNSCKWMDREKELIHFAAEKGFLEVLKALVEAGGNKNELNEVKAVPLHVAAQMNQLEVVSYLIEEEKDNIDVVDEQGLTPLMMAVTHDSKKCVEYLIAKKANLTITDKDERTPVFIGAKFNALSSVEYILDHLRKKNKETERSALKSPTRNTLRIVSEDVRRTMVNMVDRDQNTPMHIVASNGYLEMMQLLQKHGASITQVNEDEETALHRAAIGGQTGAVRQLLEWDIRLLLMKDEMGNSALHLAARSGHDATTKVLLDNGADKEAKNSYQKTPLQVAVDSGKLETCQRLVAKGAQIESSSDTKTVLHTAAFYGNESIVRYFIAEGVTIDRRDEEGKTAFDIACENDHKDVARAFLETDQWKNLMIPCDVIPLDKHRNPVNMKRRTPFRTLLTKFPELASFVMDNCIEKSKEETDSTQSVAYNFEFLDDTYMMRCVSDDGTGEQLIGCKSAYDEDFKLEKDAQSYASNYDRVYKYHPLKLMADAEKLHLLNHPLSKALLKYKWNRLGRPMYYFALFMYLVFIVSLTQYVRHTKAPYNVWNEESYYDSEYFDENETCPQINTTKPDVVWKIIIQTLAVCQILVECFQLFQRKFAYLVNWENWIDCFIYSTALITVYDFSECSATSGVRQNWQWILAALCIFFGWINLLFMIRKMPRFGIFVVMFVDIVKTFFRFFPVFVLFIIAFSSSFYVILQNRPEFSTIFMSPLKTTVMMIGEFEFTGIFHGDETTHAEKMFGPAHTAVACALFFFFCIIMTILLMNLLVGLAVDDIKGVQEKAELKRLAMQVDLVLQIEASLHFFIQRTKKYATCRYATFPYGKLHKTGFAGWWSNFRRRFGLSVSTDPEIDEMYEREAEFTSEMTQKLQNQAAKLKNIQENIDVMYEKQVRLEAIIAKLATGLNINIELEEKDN
Method: as §1

native HEK293T cells = assay: Calcium imaging of native HEK293T cells (GFP only); assay type: cell-based
Method: as §1

T1 sequence (Q6RI86 whole entry): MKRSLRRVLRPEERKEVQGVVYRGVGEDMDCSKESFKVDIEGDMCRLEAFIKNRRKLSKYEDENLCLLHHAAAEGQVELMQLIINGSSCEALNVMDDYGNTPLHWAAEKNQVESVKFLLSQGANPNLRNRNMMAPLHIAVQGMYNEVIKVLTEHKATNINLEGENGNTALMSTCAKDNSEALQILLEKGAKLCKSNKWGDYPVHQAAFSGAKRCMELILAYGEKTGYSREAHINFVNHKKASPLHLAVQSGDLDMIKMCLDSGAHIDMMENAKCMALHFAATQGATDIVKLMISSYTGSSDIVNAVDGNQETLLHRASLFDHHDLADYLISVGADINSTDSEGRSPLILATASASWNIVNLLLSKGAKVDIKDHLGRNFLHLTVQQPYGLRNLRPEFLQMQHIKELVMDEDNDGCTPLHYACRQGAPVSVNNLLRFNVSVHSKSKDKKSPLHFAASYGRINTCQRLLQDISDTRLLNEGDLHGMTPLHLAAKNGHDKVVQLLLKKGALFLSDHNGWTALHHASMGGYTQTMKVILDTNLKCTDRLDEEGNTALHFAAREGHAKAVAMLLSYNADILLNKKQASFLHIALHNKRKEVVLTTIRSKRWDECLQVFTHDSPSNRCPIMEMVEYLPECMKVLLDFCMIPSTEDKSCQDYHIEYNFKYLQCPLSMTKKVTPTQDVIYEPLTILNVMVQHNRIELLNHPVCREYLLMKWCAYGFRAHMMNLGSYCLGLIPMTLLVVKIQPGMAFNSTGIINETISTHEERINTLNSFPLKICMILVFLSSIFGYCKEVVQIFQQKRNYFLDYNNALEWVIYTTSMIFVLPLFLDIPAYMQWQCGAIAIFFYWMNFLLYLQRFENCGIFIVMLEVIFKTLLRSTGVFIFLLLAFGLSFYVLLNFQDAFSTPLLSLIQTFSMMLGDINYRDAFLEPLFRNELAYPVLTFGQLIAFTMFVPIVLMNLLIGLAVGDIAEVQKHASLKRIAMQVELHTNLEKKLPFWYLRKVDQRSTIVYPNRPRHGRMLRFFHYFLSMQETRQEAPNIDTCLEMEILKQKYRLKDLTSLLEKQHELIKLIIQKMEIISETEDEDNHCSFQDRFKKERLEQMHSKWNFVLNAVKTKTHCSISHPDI

## CC(=O)C=O [MGO, methylglyoxal]
TRPA1 (RAT)
  Ca2+ flux (Rhod-3 AM fluorescence ratio 555/484 nm): induce a similar Ca^2+ flux
TRPA1 (worm)
  Ca2+ flux (Rhod-3 AM fluorescence ratio 555/484 nm): induce a similar Ca^2+ flux
Native HEK293T cells
  Ca2+ flux in native HEK293T cells (Rhod-3 AM): neither compounds resulted in Ca^+2 flux

Reference: patent US20180015051A1, “MODULATORS OF ALPHA-DICARBONYL DETOXIFICATION AND THEIR USE FOR THE TREATMENT OF DIABETIC PATHOLOGIES” (Buck Institute for Research on Aging, priority 2016, published 2018)
